Reference: ChEMBL document CHEMBL1862790, “Optimisation of fenarimol series for the treatment of Chagas disease”

Legend:
[1] = DNDI: Cytotoxicity against L-6 rat myoblasts from skeletal muscle cells; conditions: L6 rat skeletal muscle myoblast cells
Trypanosoma cruzi [2] = assay: microbe, parasite or virus in culture; type: functional, organism-based, Tulahuen LacZ, Clone C4; conditions: Trypanosoma cruzi, Tulahuen LacZ, Clone C4
Trypanosoma cruzi [3] = assay: microbe, parasite or virus in culture; type: functional, Tulahuen LacZ, Clone C4; conditions: Trypanosoma cruzi, Tulahuen LacZ, Clone C4

SMILES	IC50 ([1]; IC50)	IC50 (Trypanosoma cruzi [2])	IC90 (Trypanosoma cruzi [3])	IC50 [1]
O=C(C1CC1)N1CCC(NC(c2ccc(C(F)(F)F)cc2)c2cccnc2)CC1 (configuration not stated)	> 100 µM	0.15 µM	0.55 µM	
CCN(CC)C(=O)N1CCC(NC(c2ccc(C(F)(F)F)cc2)c2cccnc2)CC1 (configuration not stated)	90.8 µM	0.036 µM	0.25 µM	
OC(c1ccc(Cl)cc1)(c1cccnc1)c1cnc(OC(CF)CF)nc1 (configuration not stated)	> 100 µM	0.032 µM	0.15 µM	
CN(C)C(=O)N1CCN(C(c2ccc(Cl)cc2)c2cccnc2)CC1 (configuration not stated)	> 100 µM	0.12 µM	0.3 µM	
CC(C)(C)CC(=O)NC1CCN(C(c2ccc(Cl)cc2)c2cccnc2)CC1 (configuration not stated)	> 100 µM	0.0088 µM	0.065 µM	
CS(=O)(=O)N1CCC(C(=O)NC(c2ccc(Cl)cc2)c2cccnc2)CC1 (configuration not stated)	> 100 µM	6.09 µM	> 10 µM	
O=C(Nc1ccc(Cl)cc1)NC1CCN(C(c2ccc(Cl)cc2)c2cccnc2)CC1 (configuration not stated)	21 µM	0.006 µM	0.03 µM	
O=C(Oc1ccccc1)N1CCC(NC(c2ccc(Cl)cc2)c2cccnc2)CC1 (configuration not stated)		0.02 µM	0.044 µM	60.8 µM
CCN(CC)C(=O)NC1CCN(C(c2ccc(Cl)cc2)c2cccnc2)CC1 (configuration not stated)	> 100 µM	0.12 µM	0.73 µM	
O=C(c1ccccc1)N1CCC(NC(c2ccc(C(F)(F)F)cc2)c2cccnc2)CC1 (configuration not stated)	72.8 µM	0.083 µM	0.77 µM	
CCN(CC)C(=O)NC1CCN(C(c2ccc(Cl)cc2)c2cncnc2)CC1 (configuration not stated)	> 100 µM	0.11 µM	0.86 µM	
O=S1(=O)CCCN1C1CCN(C(c2ccc(Cl)cc2)c2cccnc2)CC1 (configuration not stated)	> 100 µM	0.017 µM	0.1 µM	
O=C(NC1CCCCC1)N1CCC(NC(c2ccc(Cl)cc2)c2cccnc2)CC1 (configuration not stated)	> 100 µM	0.03 µM	0.1 µM	
CCOC(=O)N1CCN(C(c2cccnc2)c2ccc(Cl)cc2F)CC1 (configuration not stated)	60.4 µM	0.024 µM	0.076 µM	
CC(C)(C)CC(=O)N1CCN(C(c2ccc(Cl)cc2)c2cncnc2)CC1 (configuration not stated)	> 100 µM	0.24 µM	0.62 µM	
O=C(Nc1ccccc1)N1CCC(NC(c2ccc(C(F)(F)F)cc2)c2cccnc2)CC1 (configuration not stated)	64.1 µM	0.076 µM	0.38 µM	
Nc1ncc(C(O)(c2ccc(Cl)cc2)c2cccnc2)cn1 (configuration not stated)	> 100 µM	0.29 µM	0.91 µM	
CS(=O)(=O)NC1CCN(C(c2ccc(Cl)cc2)c2cccnc2)CC1 (configuration not stated)	> 100 µM	0.1 µM	0.64 µM	
O=C(N1CCCCC1)N1CCC(NC(c2ccc(Cl)cc2)c2cccnc2)CC1 (configuration not stated)	> 100 µM	0.058 µM	0.13 µM	
CC(C)Oc1ccc(C(c2cccnc2)N2CCC(NC(=O)OC(C)(C)C)CC2)cc1 (configuration not stated)	56 µM	0.025 µM	0.08 µM	
O=C(NC(c1ccc(Cl)cc1)c1cccnc1)c1ccc(C(F)(F)F)cc1 (configuration not stated)	62.6 µM	0.25 µM	0.69 µM	
CCN(CC)C(=O)NC1CCN(C(c2ccc(OC(C)C)cc2)c2cccnc2)CC1 (configuration not stated)	> 100 µM	0.087 µM	0.28 µM	
CC(C)(C)NC(=O)N1CCC(NC(c2ccc(Cl)cc2)c2cccnc2)CC1 (configuration not stated)	> 100 µM	0.06 µM	0.23 µM	

SMILES	IC50 ([1]; IC50)	IC50 (Trypanosoma cruzi [2])	IC90 (Trypanosoma cruzi [3])	IC50 [1]
CS(=O)(=O)N1CCC(NC(c2ccc(C(F)(F)F)cc2)c2cccnc2)CC1 (configuration not stated)	> 100 µM	0.19 µM	0.93 µM	
O=C(OCc1ccccc1)N1CCN(C(c2ccc(Cl)cc2)c2cncnc2)CC1 (configuration not stated)	52.1 µM	0.15 µM	0.3 µM	
CC(C)(C)OC(=O)NC1CCN(C(c2ccc(Cl)cc2)c2cncnc2)CC1 (configuration not stated)	> 100 µM	0.06 µM	0.26 µM	
CCOC(=O)NC1CCN(C(c2ccc(Cl)cc2)c2cccnc2)CC1 (configuration not stated)	> 100 µM	0.018 µM	0.086 µM	
O=C(OCc1ccccc1)N1CCN(C(c2cccnc2)c2ccc(Cl)cc2F)CC1 (configuration not stated)	59.7 µM	0.028 µM	0.088 µM	
O=C(Nc1ccc(Cl)cc1)N1CCC(NC(c2ccc(Cl)cc2)c2cccnc2)CC1 (configuration not stated)	43.4 µM	0.025 µM	0.086 µM	
O=C(NC1CCN(C(c2ccc(Cl)cc2)c2cncnc2)CC1)c1ccccc1 (configuration not stated)	90.8 µM	0.075 µM	0.79 µM	
CC(C)(C)NC(=O)N1CCN(C(c2cncnc2)c2ccc(Cl)cc2F)CC1 (configuration not stated)	> 100 µM	0.054 µM	0.11 µM	
O=C(NC1CCCC1)N1CCN(C(c2ccc(Cl)cc2)c2cncnc2)CC1 (configuration not stated)	> 100 µM	0.23 µM	0.62 µM	
O=C(c1cc(C(O)(c2ccc(Cl)cc2)c2cccnc2)ccc1Cl)N1CCOCC1 (configuration not stated)	> 100 µM	0.12 µM	0.47 µM	
CN(C)C(=O)N1CCC(NC(c2ccc(Cl)cc2)c2cccnc2)CC1 (configuration not stated)	> 100 µM	0.17 µM	0.34 µM	
O=C(NC(c1ccc(Cl)cc1)c1cccnc1)c1ccc(Cl)cc1 (configuration not stated)	58 µM	0.45 µM	0.9 µM	
O=C(Nc1ccccc1)NC1CCN(C(c2ccc(Cl)cc2)c2cncnc2)CC1 (configuration not stated)	54.4 µM	0.1 µM	> 1 µM	
CCNC(=O)N1CCN(C(c2cncnc2)c2ccc(Cl)cc2F)CC1 (configuration not stated)	> 100 µM	0.29 µM	0.77 µM	
NC(=O)c1cccc(C(O)(c2ccc(C(F)(F)F)cc2)c2cccnc2)c1 (configuration not stated)	> 100 µM	0.07 µM	0.3 µM	
CC(C)c1ccc(NC(=O)N2CCC(NC(c3ccc(Cl)cc3)c3cccnc3)CC2)cc1 (configuration not stated)	19.7 µM	0.005 µM	0.015 µM	
CC(C)Oc1ccc(C(c2cccnc2)N2CCC(NS(C)(=O)=O)CC2)cc1 (configuration not stated)	> 100 µM	0.11 µM	0.32 µM	
O=C(NC1CC1)c1cccc(C(O)(c2ccc(Cl)cc2)c2cccnc2)c1 (configuration not stated)	72.3 µM	0.18 µM	0.33 µM	
CC(C)(C)OC(=O)NC1CCN(C(c2cccnc2)c2ccc(Cl)cc2F)CC1 (configuration not stated)	55.1 µM	0.01 µM	0.046 µM	
O=C(Nc1ccccc1)NC1CCN(C(c2ccc(Cl)cc2)c2cccnc2)CC1 (configuration not stated)	75.7 µM	0.02 µM	0.075 µM	
O=C(NC1CCCC1)NC1CCN(C(c2ccc(Cl)cc2)c2cccnc2)CC1 (configuration not stated)	62.6 µM	0.06 µM	0.22 µM	
O=C(NC1CCN(C(c2ccc(Cl)cc2)c2cncnc2)CC1)C1CC1 (configuration not stated)	> 100 µM	0.48 µM	> 1 µM	
CC(C)Oc1ccc(C(c2cccnc2)N2CCC(NC(=O)C3CC3)CC2)cc1 (configuration not stated)	> 100 µM	0.38 µM	0.86 µM	

SMILES	IC50 ([1]; IC50)	IC50 (Trypanosoma cruzi [2])	IC90 (Trypanosoma cruzi [3])	IC50 [1]
CC(C)(C)OC(=O)NC1CCN(C(c2cncnc2)c2ccc(Cl)cc2F)CC1 (configuration not stated)	> 100 µM	0.059 µM	0.19 µM	
O=C(c1ccccc1)N1CCC(NC(c2ccc(Cl)cc2)c2cccnc2)CC1 (configuration not stated)	> 100 µM	0.084 µM	0.19 µM	
O=C(NC1CCN(C(c2ccc(Cl)cc2)c2cccnc2)CC1)c1ccccc1 (configuration not stated)	64.1 µM	0.01 µM	0.43 µM	
CN(C)C(=O)NC1CCN(C(c2ccc(Cl)cc2)c2cccnc2)CC1 (configuration not stated)	> 100 µM	0.032 µM	0.11 µM	
O=C(N1CCCCC1)N1CCN(C(c2ccc(Cl)cc2)c2cncnc2)CC1 (configuration not stated)	> 100 µM	0.22 µM	0.61 µM	
CC(C)Oc1ccc(C(c2cccnc2)N2CCC(NC(=O)c3ccccc3)CC2)cc1 (configuration not stated)	> 100 µM	0.061 µM	0.18 µM	
CCOC(=O)N1CCN(C(c2ccc(Cl)cc2)c2cccnc2)CC1 (configuration not stated)	83.2 µM	0.058 µM	0.12 µM	
CCNC(=O)NC1CCN(C(c2ccc(Cl)cc2)c2cccnc2)CC1 (configuration not stated)	> 100 µM	0.097 µM	0.3 µM	
O=C(NC1CCN(C(c2ccc(Cl)cc2)c2cccnc2)CC1)C1CC1 (configuration not stated)	84.1 µM	0.078 µM	0.58 µM	
CCOC(=O)N1CCC(NC(c2ccc(Cl)cc2)c2cccnc2)CC1 (configuration not stated)	> 100 µM	0.07 µM	0.19 µM	
CC(C)(C)OC(=O)NC1CCN(C(c2ccc(Cl)cc2)c2cccnc2)CC1 (configuration not stated)	54 µM	0.0085 µM	0.046 µM	
CC(C)(C)OC(=O)N1CCC(NC(c2ccc(C(F)(F)F)cc2)c2cccnc2)CC1 (configuration not stated)	57.6 µM	0.015 µM	0.059 µM	
CC(C)(C)NC(=O)NC1CCN(C(c2ccc(Cl)cc2)c2cccnc2)CC1 (configuration not stated)	> 100 µM	0.063 µM	0.19 µM	
O=C(C1CC1)N1CCC(NC(c2ccc(Cl)cc2)c2cccnc2)CC1 (configuration not stated)	> 100 µM	0.18 µM	0.3 µM	
O=C(OCc1ccccc1)N1CCN(C(c2ccc(Cl)cc2)c2cccnc2)CC1 (configuration not stated)	51.6 µM	0.034 µM	0.099 µM	
CC(C)(C)OC(=O)N1CCC(NC(c2ccc(Cl)cc2)c2cccnc2)CC1 (configuration not stated)	58.2 µM	0.024 µM	0.074 µM	
CC(C)(C)OC(=O)NC1CCN(C(c2ccc(C#N)cc2)c2cccnc2)CC1 (configuration not stated)	> 100 µM	0.026 µM	0.1 µM	
CC(C)(C)CC(=O)N1CCC(NC(c2ccc(Cl)cc2)c2cccnc2)CC1 (configuration not stated)	> 100 µM	0.031 µM	0.094 µM	
CCN(CC)C(=O)N1CCC(NC(c2ccc(Cl)cc2)c2cccnc2)CC1 (configuration not stated)	> 100 µM	0.036 µM	0.1 µM	
CC(C)Oc1ccc(C(NC(=O)c2ccc(Cl)cc2)c2cccnc2)cc1 (configuration not stated)	84.9 µM	0.15 µM	0.33 µM	
CC(C)Oc1ccc(C(O)(c2cccnc2)c2cccc(C(N)=O)c2)cc1F (configuration not stated)	> 100 µM	0.099 µM	0.27 µM	
CC(C)c1ccc(NC(=O)NC2CCN(C(c3ccc(Cl)cc3)c3cccnc3)CC2)cc1 (configuration not stated)	> 100 µM	0.003 µM	0.03 µM	
O=C(NC1CCCCC1)NC1CCN(C(c2ccc(Cl)cc2)c2cccnc2)CC1 (configuration not stated)	84.3 µM	0.026 µM	0.11 µM	
